The results in this text go back to doi:10.1101/2022.01.01.474692v1 (bioRxiv, 2022).

The series can be described thus: Solubility and behaviour in water. The series is classed as physicochemical.

Where no end group is shown, it is not given here.

GNNQQNY [GNNQQNY]: for the setting “solubilised in pure water, pH not lowered”, the “behaviour of solution in pure water” value was “tends to spontaneously aggregate”. Also, the solubility in water entry (water, no solvent pre-treatment, solution clear and transparent) was “freely soluble in water”.
